pEC50: −log10 of the molar value. Values after ≈ are worked out from the molar mass of the structure shown.

For data set [1], the target named is T1, recombinant human liver GK (Homo sapiens, UniProt P35557).
T1 construct: made in house; host or cells: E. coli
T1 sequence (P35557 1-466 isoform P35557-2): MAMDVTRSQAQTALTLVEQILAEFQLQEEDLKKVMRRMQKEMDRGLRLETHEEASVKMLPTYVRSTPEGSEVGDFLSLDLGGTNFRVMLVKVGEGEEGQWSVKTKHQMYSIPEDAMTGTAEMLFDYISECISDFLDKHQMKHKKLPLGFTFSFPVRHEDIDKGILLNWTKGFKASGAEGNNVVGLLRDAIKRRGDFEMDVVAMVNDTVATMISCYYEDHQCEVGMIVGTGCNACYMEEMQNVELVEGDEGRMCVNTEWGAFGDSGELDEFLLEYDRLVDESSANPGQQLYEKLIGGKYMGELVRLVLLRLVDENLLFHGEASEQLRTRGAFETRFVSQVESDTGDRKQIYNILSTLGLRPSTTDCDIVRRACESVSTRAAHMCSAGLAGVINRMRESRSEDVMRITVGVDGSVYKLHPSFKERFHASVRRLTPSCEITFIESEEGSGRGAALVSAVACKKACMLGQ
Kind of data set: Glucokinase-activating effect (Thio-NADH coupled G6PDH assay). The settings on record: final glucose concentration 2.5 mM, 30° C.; for Emax: OD level of DMSO control = 100%. Type of data set: biochemical. The source says: The excellent glucokinase-activating effect of the compounds of formula (I) may be determined by a method described in literature (for example, Diabetes, Vol. 45, pp. 1671-1677, 1996), or in accordance with it.
The glucokinase activity may be determined not by directly measuring glucose-6-phosphate but by measuring the level of Thio-NADH, which is produced when a reporter enzyme, glucose-6-phosphate dehydrogenase produces phosphogluconolactone from glucose-6-phosphate, and based on the level, the degree of glucokinase activation by the compound tested may be determined.
In this assay, used was a recombinant human liver GK, which was expressed by E. coli as a FLAG fusion protein therein and was purified by […] M2 AFFINITY GEL (Sigma).
Using a flat-bottomed 96-well plate, the assay was carried out at 30° C. 69 μl of an assay buffer (25 mM Hepes Buffer/pH=7.2, 2 mM MgCl2, 1 mM ATP, 0.5 mM TNAD, 1 mM dithiothreitol) was put into the plate, and 1 μl of a DMSO solution of the compound or DMSO alone as a control was added thereto. Next, 20 μl of an enzyme mixture (FLAG-GK, 20 U/ml G6PDH) cooled in ice was added to it, and 10 μl of a substrate, 25 mM glucose was added to it, and the reaction was initiated (final glucose concentration=2.5 mM).
After the start of the reaction, the increase in the absorbance at 405 nm was measured for 12 minutes at intervals of 30 seconds, and the increase for the first 5 minutes was used for assessing the compound tested. FLAG-GK was added so that the absorbance increase after 5 minutes in the presence of 1% DMSO could be from 0.04 to 0.06.
The OD level of the DMSO control was set as 100%; and the OD level of the test compound at different concentrations was determined. From the OD level at each concentration, Emax (%) and EC50 (μM) were computed and used as the index of the GK-activating potency of the compound.

Data set [2] in a line: Solubility in water by solution precipitation method (HPLC). Type of data set: physicochemical. The settings on record: water (2% DMSO), kinetic from dmso stock, from 10 mM DMSO solution, 60 minutes stirring at room temperature, compounds of the present invention. The procedure: For solubility in water, the solubility of a compound in water was determined by a solution precipitation method.
For an HPLC system, Agilent HPLC 1100 system was used. […] For a shaker, Microincubator M-36 (Taitec) was used. For a plate, a 96-deep well plate (Nunc. 260252) was used. For a well cap, Pre-Slit Well Cap for 96 Well PP (NALGENE. 276011) was used. For a filtration plate, MultiScreen Solubility (Millipore; MSSLBPC10) was used. For dispensation, an 8-channel electronic multipipette, Biohit Proline (Biohit), and a 96-well automatic pipetting device, Biomeck 2000 (Biomeck) were used. For a reagent used, a pure solvent for DMSO ultraviolet absorption spectrum (Dojindo 349-01025) and water (MiliQ water, manufactured by Millipore).
For a DMSO solution, a sample was prepared with DMSO to be precisely 10 mM.
Precise dispensation of 10 μL of a DMSO solution into each well of a 96-well plate was performed. Following addition of 490 μL of water to each of the wells and plate-sealing with 96-well Cap (Agilent No. 5042-1389), intense stirring processing of the plate was performed for 60 minutes at room temperature on a shaker. Subsequently, 200 μL of a treatment sample was added to a plate for centrifugal filtration, and centrifugal filtration of the sample was performed to obtain a filtrate. A sample solution was made by adding 200 μl, of a 50% aqueous acetonitrile solution to the provided filtrate.
Precise dispensation of 10 μL of a DMSO solution into each well of a 96-well plate was performed.
Detection was performed using a multi-wavelength detector (190-370 nm). For a column, the above-mentioned column was used at 40° C. A flow rate was set at 1.2 ml/min, and an amount of an injected sample at 20 μL. For a moving phase, a 0.1% aqueous phosphoric acid solution as a liquid A and acetonitrile as a liquid B were used to carry out analyses in accordance with a time schedule described below.
For the analyses, the data of UV 275 nm were adopted. […] Using the calibration curve, regression calculation of concentrations in water was carried out from Area of sample solutions (water).

With `CC(=O)N1CCC[C@@H]1c1cc2[nH]c(-c3ccc(C(C)(C)O)cn3)cc2cc1Oc1ccc(S(C)(=O)=O)nc1` [Example 9, 6-[(R)-1-acetylpyrrolidin-2-yl]-2-[5-(1,1-dimethylhydroxymethyl)pyridin-2-yl]-5-(6-methylsulfonylpyridin-3-yloxy)-1H-indole], in data set [1], the pEC50 is 6.89. The molecule also yielded a solubility at 60 min in data set [2] of 152 µM (≈ 81.2 µg/mL).

On to `COCc1ccc(Oc2cc3cc(-c4ccc(CO)cn4)[nH]c3cc2[C@H]2CCCN2C(C)=O)cn1` [Example 15, 6-[(R)-1-acetylpyrrolidin-2-yl]-2-(5-hydroxymethylpyridin-2-yl)-5-(6-methoxymethylpyridin-3-yloxy)-1H-indole], for which, in data set [1], the Emax stood at 849% and the pEC50 is 6.89. Further, the concentration in solution in data set [2] (solubility at 60 min) was 168 µM (≈ 79.4 µg/mL).

As to `CC(=O)N1CCC[C@@H]1c1cc2[nH]c(-c3cnc(C)cn3)cc2cc1Oc1ccc(OCCO)nc1` [Example 13, 6-[(R)-1-acetylpyrrolidin-2-yl]-5-[6-(2-hydroxyethoxy)pyridin-3-yloxy]-2-(5-methylpyrazin-2-yl)-1H-indole], in data set [1], the Emax was found to be 995% and the pEC50 is 6.64. Also, in data set [2], the solubility at 60 min worked out at 93.7 µM (≈ 44.4 µg/mL).

Turning to `CCN(CC)C(=O)c1ccc(Oc2cc3cc(-c4cnccn4)[nH]c3cc2[C@H]2CCCN2C(C)=O)cn1` [Example 27], in data set [1], the Emax was found to be 957% and the pEC50 is 6.92. In data set [2], this molecule registered a solubility at 60 min of more than 170 µM.

On to `COCc1ccc(Oc2cc3cc(-c4cnc(CO)cn4)[nH]c3cc2[C@H]2CCCN2C(C)=O)cn1` [Example 16, 6-[(R)-1-acetylpyrrolidin-2-yl]-2-(5-hydroxymethylpyrazin-2-yl)-5-(6-methoxymethylpyridin-3-yloxy)-1H-indole], for which the negative-log EC50 (pEC50) in data set [1] is 6.77. The solubility at 60 min in data set [2] is more than 170 µM.

In the case of `CC(=O)N1CCC[C@@H]1c1cc2[nH]c(-c3cnccn3)cc2cc1Oc1ccc(S(C)(=O)=O)nc1` [Example 2], in data set [1], the pEC50 is 7.05. In data set [2], this molecule showed a solubility at 60 min of more than 170 µM.

Consider `CC(=O)N1CCC[C@@H]1c1cc2[nH]c(-c3cnc(C)cn3)cc2cc1Oc1ccc(S(C)(=O)=O)nc1` [Example 3, 6-[(R)-1-acetylpyrrolidin-2-yl]-5-(6-methylsulfonylpyridin-3-yloxy)-2-(5-methylpyrazin-2-yl)-1H-indole], for which the pEC50 in data set [1] was 6.92. Also, the solubility at 60 min in data set [2] is more than 170 µM.

`CC(=O)N1CCC[C@@H]1c1cc2[nH]c(-c3cnccn3)cc2cc1Oc1ccc(C(=O)N(C)CCO)nc1` [Example 28]: the pEC50 in data set [1] is 7.00. In addition, in data set [2], the solubility at 60 min was more than 170 µM.

(Values after US8592428B2 (MSD K. K., priority 2008, dated 2013).)
